Like-named read-outs stand apart in the source and are kept apart here.
What was measured:
[1] = target: muscarinic acetylcholine receptors; experiment: inhibition of specific binding of ^3 H-Oxotremorine-M (^3 H-Oxo); set-up: species or system rat (male Wistar; conditions: ^3 H-Oxotremorine 1.0 nM, rat cortex, 30 min. at 25° C.
Summary of the method: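 Rat cortex membranes (male Wistar) in 20 mM Hepes pH 7.4 incubated with 1.0 nM ^3H-Oxotremorine-M (final) and test compound for 30 min at 25 °C; arecoline defines non-specific binding. Bound radioactivity by filtration and scintillation counting; IC50 (nM) from a single concentration via Co/Cx mass-action formula, reflecting high- and medium-affinity sites.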

[2] = target: T1, muscarinic receptors (M1 -site, pirenzepine sensitive site) (Rattus norvegicus, UniProt P08482); experiment: inhibition of ^3 HPRZ (pirenzepine, [N-methyl-^3 H]) binding to rat cerebral cortex membranes; set-up: species or system rat (male Wistar
T1 construct: from tissue; host or cells: cerebral cortex membranes of male Wistar rats
T1 sequence (P08482 1-460): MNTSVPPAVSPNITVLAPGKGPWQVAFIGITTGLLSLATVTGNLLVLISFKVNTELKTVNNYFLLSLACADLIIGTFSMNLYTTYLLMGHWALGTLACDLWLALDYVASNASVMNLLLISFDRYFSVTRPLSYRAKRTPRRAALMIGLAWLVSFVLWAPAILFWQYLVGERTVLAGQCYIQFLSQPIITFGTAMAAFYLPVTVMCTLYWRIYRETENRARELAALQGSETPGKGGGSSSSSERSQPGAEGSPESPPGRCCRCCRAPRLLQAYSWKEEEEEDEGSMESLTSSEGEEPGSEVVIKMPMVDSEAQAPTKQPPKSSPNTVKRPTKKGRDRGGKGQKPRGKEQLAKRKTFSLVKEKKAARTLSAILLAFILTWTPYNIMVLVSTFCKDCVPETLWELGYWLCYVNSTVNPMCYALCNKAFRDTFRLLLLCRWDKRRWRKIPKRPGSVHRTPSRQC
Summary of the method: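 Male Wistar rat cortex membranes in 20 mM Hepes pH 7.4 were incubated with 1.0 nM (final) [3H]pirenzepine for 60 min at 20° C; nonspecific binding was defined with 1 μg/mL atropine. Filtration and scintillation counting were used, and IC50 was calculated from a single concentration assuming mass-action kinetics.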

[3] = ^3 HPRZ 1.0 nM, rat cortex, 60 min. at 20° C., read-out: ^3 HPRZ IC50 (head from b208 on: Pir IC-50)

| IC50 [2, 3] [nM] | SMILES | IC50 [1] [nM] | IC50 [2] [nM] |
| --- | --- | --- | --- |
| – | Clc1nsnc1O[C@@H]1CN2CCC[C@@H]1C2 (relative stereo) [Compound 47, (±)-exo-3-Chloro-4-(1-azabicyclo[3.2.1]octyl-6-oxy)-1,2,5thiadiazole] | 54 | 23 |
| 8.8 | FC(F)(F)Oc1ccc(COc2nsnc2O[C@@H]2CN3CCC[C@H]2C3)cc1 (relative stereo) [Compound 196, (±)-endo-3-[4-(Trifluoromethoxy)benzyloxy]-4-(1-azabicyclo[3.2.1]octyl-6-oxy)-1,2,5-thiadiazole] | 5.2 | – |
| 3.5 | C1C[C@H]2CN(C1)C[C@H]2Oc1nsnc1OCC1CC1 (relative stereo) [Compound 182, (±)-endo-3-(cyclopropylmethoxy)-4-(1-azabicyclo[3.2.1]octyl-6-oxy)-1,2,5-thiadiazole] | 0.6 | – |
| – | c1ccc(OCCSc2nsnc2OC2CN3CCC2CC3)cc1 (racemic) [Compound 44, (±)-3-(2-Phenyloxyethylthio)-4-(1-azabicyclo[2.2.2]octyl-3-oxy)-1,2,5-thiadiazole] | 7.1 | 15 |
| 12 | CCCCOc1nsnc1OC[C@@H]1CCCN1C [Compound 31, (S)-3-Butyloxy-4-(1-methyl-2-pyrrolidinylmethyloxy)-1,2,5-thiadiazole] | 32 | – |
| – | c1csc(-c2ccc(Sc3nsnc3OC3CN4CCC3CC4)s2)c1 (racemic) [Compound 57, (±)-3-(2-(5-(2-Thienyl)thienyl)thio)-4-(1-azabicyclo [2.2.2]octyl-3-oxy)-1,2,5-thiadiazole] | 88 | 37 |
| 4.3 | C#CC(C)Oc1nsnc1OC1CN2CCCC1C2 (mixture of isomers) [Compound 203, (±)-endo-3-(3-Butyn-2-oxy)-4-(1-azabicyclo[3.2.1]octyl-6-oxy)-1,2,5-thiadiazole] | 3.1 | – |
| 10 | CCCCSc1nsnc1OCCN(CC)CC [Compound 34, 3-Butylthio-4-(2-(diethylamino)ethoxy)-1,2,5-thiadiazole] | 86 | – |
| 6.4 | CC#CCOc1nsnc1O[C@@H]1CN2CCC[C@H]1C2 (relative stereo) [Compound 168] | 1 | – |
| – | CSCCc1nsnc1OC1CN2CCC1CC2 (racemic) [Compound 99, (±)-3-(2-Methylthioethyl)-4-(1-azabicyclo[2.2.2]octyl-3-oxy)-1,2,5-thiadiazole] | 41 | 70 |
| – | C(=Cc1ccccc1)CSc1nsnc1OC1CN2CCC1CC2 (racemic) [Compound 149, (±)-3-(3-Phenyl-2-propenylthio)-4-(1-azabicyclo[2.2.2]octyl-3-oxy)-1,2,5-thiadiazole] | 14 | 30 |
| 0.47 | CCCCSc1nsnc1O[C@H]1CN2CCC[C@@H]1C2 [Compound 138, (5R,6R)-endo-3-Butylthio-4-(1-azabicyclo[3.2.1]octyl-6-oxy)-1,2,5-thiadiazole] | 0.65 | – |
| 2 | C1C[C@H]2CN(C1)C[C@H]2Oc1nsnc1OCCC1CC1 (relative stereo) [Compound 185] | 0.76 | – |
| – | c1ccc(CCCSc2nsnc2OC2CN3CCC2CC3)cc1 (racemic) [Compound 40, (±)-3-(3-Phenylpropylthio)-4-(1-azabicyclo[2.2.2]octyl-3-oxy)-1,2,5-thiadiazole] | 1.8 | 2.5 |
| – | CCCCCSc1nsnc1O[C@@H]1CN2CCC1CC2 [Compound 16, (S)-3-Pentylthio-4-(1-azabicyclo[2.2.2]octyl-3-oxy)-1,2,5-thiadiazole] | 6.4 | 2 |
| 227 | CCCCOc1nsnc1OC1CCCNC1 (racemic) [Compound 134, (±)-3-Butyloxy-4-(3-piperidinyloxy)-1,2,5-thiadiazole] | 55 | – |
| – | Fc1ccc(CCCSc2nsnc2OC2CN3CCC2CC3)cc1 (racemic) [Compound 73, (±)3-[3-(4-Fluorophenyl)propylthio]-4-[-3-(1-azabicyclo[2.2.2]octyloxy)]-1,2,5-thiadiazole] | 4.1 | 6.5 |
| 1.9 | C/C=C/COc1nsnc1O[C@@H]1CN2CCC[C@H]1C2 (relative stereo) [Compound 169, (±)-endo-3-(trans-2-Butenyloxy)-4-(1-azabicyclo[3.2.1]octyl-6-oxy)-1,2,5-thiadiazole] | 1 | – |
| 2.1 | CCCCSc1nsnc1O[C@@H]1CN2CCC[C@H]1C2 [Compound 137, (5S, 6S)-endo-3-Butylthio-4-(1-azabicyclo[3.2.1]octyl-6-oxy)-1,2,5-thiadiazole] | 7.39 | – |
| 19 | CCCCCSc1nsnc1O[C@@H]1CN2CCC[C@H]1C2 (relative stereo) [Compound 24, (±)-Endo-3-pentylthio-4-(1-azabicyclo[3.2.1]-octyl-6-oxy)-1,2,5-thiadiazole] | 19 | – |
| – | CCCOc1nsnc1OC1CN2CCC1CC2 (racemic) [Compound 7, (±)-3-propyloxy-4-(1-azabicyclo[2.2.2]octyl-3-oxy)-1,2,5-thiadiazole] | 10.7 | 26 |
| 7.5 | Fc1ccc(COc2nsnc2O[C@@H]2CN3CCC[C@H]2C3)c(F)c1 (relative stereo) [Compound 195, (±)-endo-3-(2,4-Difluorobenzyloxy)-4-(1-azabicyclo[3.2.1]octyl-6-oxy)-1,2,5-thiadiazole] | 4.9 | – |
| 5.4 | CC(Oc1nsnc1OC1CN2CCCC1C2)C1CC1 (mixture of isomers) [Compound 199, (±)-endo-3-(1-cyclopropylethoxy)-4-(1-azabicyclo[3.2.1]octyl-6-oxy)-1,2,5-thiadiazole] | 3.3 | – |
| > 1000 | CCCCSc1nsnc1O[C@@H]1CNC[C@H]1O (relative stereo) [Compound 146, (±)-trans-3-Butylthio-4-(4-hydroxy-pyrollidin-3-oxy)-1,2,5-thiadiazole] | 775 | – |
| – | CCCCSc1nsnc1O[C@@H]1CN2CC[C@@H]1C2 (relative stereo) [Compound 131, (±)exo-3-Butylthio-4-(1-azabicyclo[2.2.1]heptyl-3-oxy)-1,2,5-thiadiazole] | 5.6 | 46 |
| – | C/C=C\COc1nsnc1OC1CN2CCC1CC2 (mixture of isomers) [Compound 110, (±)-3-(cis-2-butenyloxy)-4-(1-azabicyclo[2.2.2]octyl-3-oxy)-1,2,5-thiadiazole] | 13.2 | 50.4 |
| – | FC(F)(F)C(F)(F)C(F)(F)COc1nsnc1OC1CN2CCC1CC2 (racemic) [Compound 69, (±)3-(2,2,3,3,4,4,4-heptafluorobutyloxy)-4-[-3-(1-azabicyclo[2.2.2]octyloxy)]-1,2,5-thiadiazole] | 29 | 20 |
| 2 | ClCCCOc1nsnc1O[C@@H]1CN2CCC[C@H]1C2 (relative stereo) [Compound 177, (±)-endo-3-(3-Chloropropoxy)-4-(1-azabicyclo[3.2.1]octyl-6-oxy)-1,2,5-thiadiazole] | 1.1 | – |
| – | c1cncc(CCCSc2nsnc2OC2CN3CCC2CC3)c1 (racemic) [Compound 155, (±)-3-(3-[3-pyridyl]propylthio)-4-(1-azabicyclo[2.2.2]octyl-3-oxy)-1,2,5-thiadiazole] | 3.4 | 8.8 |

| SMILES | IC50 [2, 3] [nM] | IC50 [1] [nM] | IC50 [2] [nM] |
| --- | --- | --- | --- |
| c1ccc2c(OCCOc3nsnc3OC3CN4CCC3CC4)cccc2c1 (racemic) [Compound 127, (±)-3-(2-[1-Napthyloxy]ethoxy)-4-(1-azabicyclo [2.2.2]octyl-3-oxy)-1,2,5-thiadiazole] | 373 | 61 | – |
| c1ccc(OCCOc2nsnc2OC2CN3CCC2CC3)cc1 (racemic) [Compound 112, (±)-3-(2-Phenoxyethoxy)-4-(1-azabicyclo[2.2.2]octyl-3-oxy)-1,2,5-thiadiazole] | 153 | 16 | – |
| CSCCOc1nsnc1OC1CN2CCC1CC2 (racemic) [Compound 115, (±)-3-(2-(Methylthio)ethoxy)-4-(1-azabicyclo[2.2.2]octyl-3-oxy)-1,2,5-thiadiazole] | 532 | 19 | – |
| CCCCS(=O)(=O)c1nsnc1OC1CN2CCC1CC2 (racemic) [Compound 102, (±)-3-Butylsulfonyl-4-(1-azabicyclo[2.2.2]octyl-3-oxy)-1,2,5-thiadiazole] | 187 | 378 | – |
| CCCCNc1nsnc1OC1CN2CCC1CC2 (racemic) [Compound 75, 3-(1-Butylamino)-4-[(+,-)-3-(azabicyclo[2.2.2]octyloxy)]-1,2,5-thiadiazole] | 128 | 65 | – |
| FC(F)(F)CCCOc1nsnc1OC1CN2CCC1CC2 (racemic) [Compound 104, (±)-3-(4,4,4-Trifluorobutyloxy)-4-(1-azabicyclo[2.2.2]octyl-3-oxy)-1,2,5-thiadiazole] | 115 | 107 | – |
